The source of these data is PMC5046073, “Prediction and evaluation of the lipase inhibitory activities of tea polyphenols with 3D-QSAR models” (Scientific Reports, 2016).

The first assay has as its target T1, pancreatic lipase (Sus scrofa, UniProt P00591).
T1 construct: gene PNLIP
T1 sequence (P00591 1-450): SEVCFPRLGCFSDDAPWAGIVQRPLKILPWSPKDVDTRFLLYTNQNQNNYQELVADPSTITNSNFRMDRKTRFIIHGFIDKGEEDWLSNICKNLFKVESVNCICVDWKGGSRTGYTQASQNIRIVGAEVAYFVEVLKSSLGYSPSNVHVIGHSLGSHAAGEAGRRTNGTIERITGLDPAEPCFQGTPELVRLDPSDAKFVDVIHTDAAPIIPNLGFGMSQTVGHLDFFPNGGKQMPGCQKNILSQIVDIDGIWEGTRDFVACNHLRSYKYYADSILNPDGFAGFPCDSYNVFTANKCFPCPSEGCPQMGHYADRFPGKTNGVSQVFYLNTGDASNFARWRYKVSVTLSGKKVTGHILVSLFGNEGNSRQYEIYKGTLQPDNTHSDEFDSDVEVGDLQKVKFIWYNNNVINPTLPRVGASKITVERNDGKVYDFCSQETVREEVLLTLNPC
Kind of assay: biochemical.
Conditions: not given
On to `Oc1cc(O)c2c(c1)O[C@H](c1ccc(O)c(O)c1)[C@H](O)C2` [compound 3, (−)-epicatechin (EC)], for which the 50% inhibitory concentration (IC50) – broadly, the concentration that inhibits the measured activity by half – was above 30000 nM.
Turning to `O=C(O[C@@H]1Cc2c(O)cc(O)cc2O[C@H]1c1cc(O)c(O)c(O)c1)c1cc(O)c(O)c(O)c1` [compound 6, (−)-gallocatechin-3-O-gallate (GCG)], half-maximal inhibition (IC50) required 570 nM.
Same read-out and setting: the same measure for `COc1cc(C(=O)O[C@@H]2Cc3c(O)cc(O)cc3O[C@@H]2c2ccc(O)c(O)c2)cc(O)c1O` [compound 9, (−)-epicatechin 3-O-(3′-O-methyl)-gallat]: 740 nM; for `O=C(/C=C/c1ccc(O)cc1)O[C@@H]1Cc2c(O)cc(O)cc2O[C@@H]1c1cc(O)c(O)c(O)c1` [compound 10, (−)-epigallocatechin-3-O-p-coumaroate]: 970 nM.
The same measure, in the same setting: then `O=C(O[C@@H]1Cc2c(O)cc(O)cc2O[C@@H]1c1ccc(O)cc1)c1cc(O)c(O)c(O)c1` [compound 15, (−)-epiafzelechin 3-O-gallate], with 2810 nM; and `Oc1cc(O)c2c(c1)O[C@H](c1ccc(O)c(O)c1)[C@@H](O)[C@@H]2c1c(O)cc(O)c2c1O[C@H](c1cc(O)c(O)c(O)c1)[C@H](O)C2` [compound 16, (+)-catechin (4α-8) (−)-epigallocatechin], with 8700 nM; and `Oc1cc(O)c2c(c1)O[C@H](c1ccc(O)c(O)c1)[C@H](O)[C@H]2c1c(O)cc(O)c2c1O[C@H](c1ccc(O)c(O)c1)[C@H](O)C2` [compound 23, procyanidin B2], with 8750 nM.
Molecule `Oc1cc(O)c2c(c1)O[C@H](c1ccc(O)c(O)c1)[C@@H](O)[C@@H]2c1c(O)cc(O)c2c1O[C@H](c1ccc(O)c(O)c1)[C@@H](O)C2` [compound 24, procyanidin B3] showed a concentration for half-maximal inhibition (IC50) of 3280 nM.
`Oc1cc(O)c2c(c1)O[C@H](c1ccc(O)c(O)c1)[C@@H](O)[C@@H]2c1c(O)cc(O)c2c1O[C@H](c1ccc(O)c(O)c1)[C@H](O)C2` [compound 25, procyanidin B4] showed an IC50 of 17300 nM.
`Oc1cc(O)c2c(c1)O[C@H](c1cc(O)c(O)c(O)c1)[C@H](O)[C@H]2c1c(O)cc(O)c2c1O[C@H](c1cc(O)c(O)c(O)c1)[C@H](O)C2` [compound 27, prodelphinidin B2] returned a 50% inhibitory concentration (IC50) of 3240 nM.
With `Oc1cc(O)c2c(c1)O[C@H](c1cc(O)c(O)c(O)c1)[C@@H](O)[C@@H]2c1c(O)cc(O)c2c1O[C@H](c1cc(O)c(O)c(O)c1)[C@H](O)C2` [compound 30, prodelphinidin B4], the IC50 came to 6850 nM.
With `O=C(O[C@@H]1Cc2c(O)cc(O)cc2O[C@@H]1c1cc(O)c(O)c(O)c1-c1c([C@H]2Oc3cc(O)cc(O)c3C[C@H]2O)cc(O)c(O)c1O)c1cc(O)c(O)c(O)c1` [compound 36, theasinensin B], half-maximal inhibition (IC50) required 300 nM.
The molecule `Oc1cc(O)c2c(c1)O[C@H](c1cc(O)c(O)c(O)c1-c1c([C@H]3Oc4cc(O)cc(O)c4C[C@H]3O)cc(O)c(O)c1O)[C@H](O)C2` [compound 37, theasinensin C] yielded an IC50 of 16400 nM.

Staying with this assay, now noted: inhibitor.
The molecule `O=C(OC1Cc2c(O)cc(O)c(C(c3cc(O)c(O)c(O)c3)C(Cc3c(O)cc(O)cc3O)OC(=O)c3cc(O)c(O)c(O)c3)c2OC1c1cc(O)c(O)c(O)c1)c1cc(O)c(O)c(O)c1` (centres unmarked) [compound 1, assamicain A] gave an IC50 of 130 nM.
Still for that read-out and setting: the same measure for `O=C(O[C@@H]1Cc2c(O)cc(O)c([C@H]3c4c(O)cc(O)cc4O[C@H](c4ccc(O)c(O)c4)[C@@H]3O)c2O[C@@H]1c1cc(O)c(O)c(O)c1)c1cc(O)c(O)c(O)c1` [compound 11, (−)-epicatechin(4β-8)-(−)-epigallocatechin 3-O-gallate]: 160 nM; for `O=C(O[C@@H]1Cc2c(O)cc(O)c([C@H]3c4c(O)cc(O)cc4O[C@H](c4cc(O)c(O)c(O)c4)[C@@H]3O)c2O[C@@H]1c1ccc(O)c(O)c1)c1cc(O)c(O)c(O)c1` [compound 12, (−)-epigallocatechin (4β-8)-(−)-epicatechin-3-O-gallate]: 1230 nM; for `O=C(O[C@@H]1[C@@H](c2c(O)cc(O)c3c2O[C@H](c2cc(O)c(O)c(O)c2)[C@H](OC(=O)c2cc(O)c(O)c(O)c2)C3)c2c(O)cc(O)cc2O[C@@H]1c1ccc(O)c(O)c1)c1cc(O)c(O)c(O)c1` [compound 13, (−)-epicatechin-3-O-gallate-(4β-8)-(−)-epigallocatechin3-O-gallate]: 930 nM.
Same read-out and setting: the same measure for `O=C(O[C@@H]1[C@@H](c2c(O)cc(O)c3c2O[C@H](c2ccc(O)c(O)c2)[C@H](OC(=O)c2cc(O)c(O)c(O)c2)C3)c2c(O)cc(O)cc2O[C@@H]1c1cc(O)c(O)c(O)c1)c1cc(O)c(O)c(O)c1` [compound 14, (−)-epigallocatechin-3-O-gallate-(4β-8)-(−)-epicatechin 3-O-gallate]: 690 nM; for `O=C(O[C@@H]1Cc2c(O)cc(O)c([C@@H]3c4c(O)cc(O)cc4O[C@H](c4ccc(O)c(O)c4)[C@H]3O)c2O[C@@H]1c1cc(O)c(O)c(O)c1)c1cc(O)c(O)c(O)c1` [compound 17, (+)-catechin (4α-8) (−)-epigallocatechin 3-O-gallate]: 190 nM.

Another assay deals with T1, pancreatic lipase. Kind of assay: fluorescent 4-MU oleate hydrolysis assay, type VI-S pancreatic lipase. Format: biochemical.
Conditions: not given
In turn, `O=C(Oc1cc(O)cc2c1C[C@@H](OC(=O)c1cc(O)c(O)c(O)c1)[C@@H](c1cc(O)c(O)c(O)c1)O2)c1cc(O)c(O)c(O)c1` [compound 8, (−)-epigallocatechin-3,5-di-O-gallate] yielded an IC50 of 110 nM.
Still for that read-out and setting: the same measure for `O=C(OC1Cc2c(O)cc(O)c(Cc3c(O)cc(O)c4c3OC(c3cc(O)c(O)c(O)c3)C(OC(=O)c3cc(O)c(O)c(O)c3)C4)c2OC1c1cc(O)c(O)c(O)c1)c1cc(O)c(O)c(O)c1` (centres unmarked) [compound 20, oolonghomobisflavan A]: 110 nM; for `O=C(O[C@@H]1[C@@H](c2c(O)cc(O)c3c2O[C@H](c2cc(O)c(O)c(O)c2)[C@H](OC(=O)c2cc(O)c(O)c(O)c2)C3)c2c(O)cc(O)cc2O[C@@H]1c1cc(O)c(O)c(O)c1)c1cc(O)c(O)c(O)c1` [compound 29, prodelphinidin B2-3,3′-di-O-gallate]: 100 nM.
On the same count and under the same terms, then `O=C(O[C@@H]1Cc2c(O)cc(O)cc2O[C@@H]1c1cc(O)c(O)c2c(=O)c(O)cc([C@H]3Oc4cc(O)cc(O)c4C[C@H]3O)cc12)c1cc(O)c(O)c(O)c1` [compound 33, theaflavin-3′-O-gallate], with 130 nM; and `O=C(O[C@@H]1Cc2c(O)cc(O)cc2O[C@@H]1c1cc(O)c(O)c(O)c1-c1c([C@H]2Oc3cc(O)cc(O)c3C[C@H]2OC(=O)c2cc(O)c(O)c(O)c2)cc(O)c(O)c1O)c1cc(O)c(O)c(O)c1` [compound 35, theasinensin A], with 150 nM.
As for “(−)-epicatechin-3-O-gallate [compound 4]”, the IC50 stood at 340 nM.
For “(−)-epigallocatechin-3-O-gallate [compound 7]”, the IC50 is 390 nM.
